{
  "source": "patent US9422293B2",
  "about": "(priority 2006, dated 2016)",
  "note": "Structures can show the parent of a compound that is named as a salt.",
  "data": [
    {"target": "rat TRPV1 (Rattus norvegicus (Rat), UniProt O35433)", "sequence (O35433 whole entry)": "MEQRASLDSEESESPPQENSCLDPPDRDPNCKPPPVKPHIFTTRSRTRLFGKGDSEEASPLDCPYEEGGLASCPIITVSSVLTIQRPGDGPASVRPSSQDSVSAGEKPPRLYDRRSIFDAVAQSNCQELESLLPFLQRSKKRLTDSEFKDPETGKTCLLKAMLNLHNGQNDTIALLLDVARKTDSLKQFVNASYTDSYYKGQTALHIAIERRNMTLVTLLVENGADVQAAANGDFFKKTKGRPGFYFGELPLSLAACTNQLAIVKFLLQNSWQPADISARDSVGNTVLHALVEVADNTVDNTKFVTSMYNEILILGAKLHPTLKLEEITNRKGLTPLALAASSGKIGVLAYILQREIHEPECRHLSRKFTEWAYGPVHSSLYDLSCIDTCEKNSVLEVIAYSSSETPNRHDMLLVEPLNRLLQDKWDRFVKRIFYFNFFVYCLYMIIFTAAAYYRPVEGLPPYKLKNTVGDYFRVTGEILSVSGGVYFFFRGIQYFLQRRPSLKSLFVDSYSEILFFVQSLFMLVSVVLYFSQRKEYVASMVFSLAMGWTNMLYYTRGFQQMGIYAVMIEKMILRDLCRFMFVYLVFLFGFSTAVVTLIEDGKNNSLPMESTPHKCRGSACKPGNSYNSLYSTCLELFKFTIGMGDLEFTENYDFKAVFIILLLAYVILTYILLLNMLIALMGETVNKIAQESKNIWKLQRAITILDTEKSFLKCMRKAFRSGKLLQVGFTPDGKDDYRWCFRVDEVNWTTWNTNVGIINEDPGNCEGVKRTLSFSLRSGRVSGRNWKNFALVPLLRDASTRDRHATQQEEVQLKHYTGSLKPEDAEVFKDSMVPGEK", "conditions": "read-out: Rat IC50", "units": {"IC50": "nM"}, "values": [
      {"smiles": "FC(F)(F)c1ccc(Nc2nc(-c3ccncc3)nc3c2CCN(c2ncccc2C(F)(F)F)CC3)nc1", "note": "[Example 190, 2-Pyridin-4-yl-7-[3-(trifluoromethyl)pyridin-2-yl]-N-[5-(trifluoromethyl)pyridin-2-yl]-6,7,8,9-tetrahydro-5H-pyrimido[4,5-d]azepin-4-amine trifluoroacetic acid salt]", "IC50": 1160},
      {"smiles": "CC(C)c1nc2c(c(Nc3ccc(C(C)(C)C)cc3)n1)CCN(c1ncccc1N)CC2", "note": "[Example 284, 7-(3-Aminopyridin-2-yl)-N-[4-(1,1-dimethylethyl)phenyl]-2-(1-methylethyl)-6,7,8,9-tetrahydro-5H-pyrimido[4,5-d]azepin-4-amine]", "IC50": 550},
      {"smiles": "FC(F)(F)c1ccc(Nc2nc(OC3CCCC3)nc3c2CCN(c2ncccc2C(F)(F)F)CC3)cc1", "note": "[Example 337, 2-(Cyclopentyloxy)-N-[4-(trifluoromethyl)phenyl]-7-[3-(trifluoromethyl)pyridin-2-yl]-6,7,8,9-tetrahydro-5H-pyrimido[4,5-d]azepin-4-amine]", "IC50": 170},
      {"smiles": "FC(F)(F)c1ccc(Nc2nc(N3CCCCC3)nc3c2CCN(c2ncccc2C(F)(F)F)CC3)nc1Cl", "note": "[Example 390, (6-Chloro-5-trifluoromethyl-pyridin-2-yl)-[2-piperidin-1-yl-7-(3-trifluoromethyl-pyridin-2-yl)-6,7,8,9-tetrahydro-5H-pyrimido[4,5-d]azepin-4-yl]-amine]", "IC50": 90},
      {"smiles": "FC(F)(F)c1ccc(Nc2nc(-c3ccccc3)nc3c2CCN(c2ncccc2C(F)(F)F)CC3)cc1", "note": "[Example 7, [2-Phenyl-7-(3-trifluoromethyl-pyridin-2-yl)-6,7,8,9-tetrahydro-5H-pyrimido[4,5-d]azepin-4-yl]-(4-trifluoromethyl-phenyl)-amine]", "IC50": 140},
      {"smiles": "COC(=O)c1ccc(Nc2nc(N3CCCCC3)nc3c2CCN(c2ncccc2C(F)(F)F)CC3)cc1", "note": "[Example 387, 4-[2-Piperidin-1-yl-7-(3-trifluoromethyl-pyridin-2-yl)-6,7,8,9-tetrahydro-5H-pyrimido[4,5-d]azepin-4-ylamino]-benzoic acid methyl ester]", "IC50": 550},
      {"smiles": "CC(C)c1nc2c(c(Nc3ccc(SC(F)(F)F)cc3)n1)CCN(c1ncccc1C(F)(F)F)CC2", "note": "[Example 104, [2-Isopropyl-7-(3-trifluoromethyl-pyridin-2-yl)-6,7,8,9-tetrahydro-5H-pyrimido[4,5-d]azepin-4-yl]-(4-trifluoromethylsulfanyl-phenyl)-amine]", "IC50": 320},
      {"smiles": "OC[C@@H]1CCCN1c1nc2c(c(Nc3ccc(C(F)(F)F)cn3)n1)CCN(c1ncccc1C(F)(F)F)CC2", "note": "[Example 262, [(2S)-1-(7-[3-(Trifluoromethyl)pyridin-2-yl]-4-{[5-(trifluoromethyl)pyridin-2-yl]amino}-6,7,8,9-tetrahydro-5H-pyrimido[4,5-d]azepin-2-yl)pyrrolidin-2-yl]methanol hydrochloride salt]", "IC50": 1640},
      {"smiles": "CC(C)(C)c1ccc(Nc2ncnc3c2CCN(c2nncc4ccccc24)CC3)cc1", "note": "[Example 37, (4-tert-Butyl-phenyl)-(7-phthalazin-1-yl-6,7,8,9-tetrahydro-5H-pyrimido-[4,5-d]azepin-4-yl)-amine]", "IC50": 150},
      {"smiles": "CN(C)c1nc2c(c(NC3Cc4ccccc4C3)n1)CCN(c1ncccc1C(F)(F)F)CC2", "note": "[Example 82B, N^4-Indan-2-yl-N^2,N^2-dimethyl-7-(3-trifluoromethyl-pyridin-2-yl)-6,7,8,9-tetrahydro-5H-pyrimido[4,5-d]azepine-2,4-diamine trifluoroacetic acid salt]", "IC50": 2800},
      {"smiles": "FC(F)(F)c1ccc(Nc2nc(-c3ccncc3)nc3c2CCN(c2ncccc2C(F)(F)F)CC3)cc1", "note": "[Example 167, 2-Pyridin-4-yl-N-[4-(trifluoromethyl)phenyl]-7-[3-(trifluoromethyl)pyridin-2-yl]-6,7,8,9-tetrahydro-5H-pyrimido[4,5-d]azepin-4-amine trifluoroacetic acid salt]", "IC50": 370}
    ]}
  ]
}
